In series [1] the test system is H630 human colorectal tumor cells. The series is described as follows: Clonogenic assay. Format: cell-based. The following applies: for IC50: Clonogenic assay, H630 cells, 72 h drug exposure. The protocol:
(§1) About one thousand viable H630 or H630-10 cells suspended in 10 mL of RPMI 1640 medium with 9% NU serum IV were grown at 37° C. in a humidified 5% CO2-air atmosphere in 100×20 mm plastic petri dishes. After 48 h, the medium was removed, and replaced with 10 mL of fresh medium containing either 5-FU, FdUMP[10], or both 5-FU and FdUMP[10]. After 72 h, the medium containing drugs was removed and replaced by fresh medium. Plates were incubated for 2 to 3 weeks with fresh medium added, if necessary, after which the medium was removed, and the clones were identified by staining with 0.1% methylene blue in 70% ethanol aqueous solution. The number of surviving colonies was counted, and calculated as a percent of controls. Each study was repeated twice.

For series [2], the system named is H630-10 human colorectal tumor cells. The series is described as follows: Clonogenic assay. The class given is cell-based. To be noted: H630-10 cells, 72 h drug exposure. The protocol: as §1
For series [3] the test system is unchanged. Description: MTT assay. Format: cell-based. To be noted: H630-10 cells, 24 h drug exposure. The text has this: All culture media were supplemented with penicillin/streptomycin.
The conditions of series [4]: cited from earlier work.
For series [5], the system named is H630 human colorectal tumor cells. The series is described as follows: cells. The following applies: NCI-H630, 24 h.
Method: (§2) The antiproliferative activities of FdUMP[10] and 5-FU for the human colorectal tumor cell lines H630 and H630-10 were compared using an assay for 3-(4,5-dimethylthiazol-2-yl)-2,5-diphenyltetrazolium bromide (MTT). H630 and H630-10 cells were cultured using RPMI 1640 containing L-glutamine and supplemented with 10% Nu-serum IV. All culture media were supplemented with penicillin/streptomycin. 25,000 cells were plated (96 well flute-bottom plate) in 200 μL of medium at 37° C. overnight in an air atmosphere containing 5% CO2. The medium was replaced the next day, and cells were exposed to the drugs for 24 h. The medium was then removed from the plates and replaced with 100 μL of fresh medium and 25 μL of MTT solution (5 μg/μL in PBS) per well. Following 2 h incubation, 100)L of MTT solvent (20% w/v SDS dissolved in DMF:H2O [1:1], pH 4.7) was added to each well and the plates were incubated overnight (Senderoff et al., 1990). The plates were analyzed the following morning on a Titerek Multiscan Plus 96-well plate analyzer (v.1.4). The number of viable cells in each well containing cells treated with drug was calculated from the absorbance at 570 nm compared to untreated controls. The means and standard deviation at each concentration for each drug were calculated using standard statistical methods. MTT assays were run in duplicate or triplicate to assure the statistical significance of the results.
The next series has as its system H630 cells. The series is described as follows: TUNEL assay for induction of apoptosis. The following applies: TUNEL staining, H630 cells exposed for 72 h, data not shown. The class given is cell-based, human. The protocol: About one million H630 cells were seeded into each of the T-75 cell culture flasks. Two days later, after two doubling times, the cells were exposed to FdUMP[10]. The cells were exposed to FdUMP[10] for 72 h, and then fixed with 1% methanol-free formaldehyde for 20 min at 0° C. The fixed-cells were then placed in a 70% ethanol solution at −20° C. for two weeks. The ethanol was then removed, and the cells were washed with PBS and incubated with TdT buffer (Promega), containing equilibration buffer, nucleotide mixture and TdT enzyme, at 37° C. for 1 hour. The reaction was terminated by addition of EDTA solution and the incubation buffer was then removed. The cells were then treated with 0.1% Triton, followed by propidium iodide containing DNase-free RNAse. The cells were kept at room temperature for 30 min, and then analyzed by flow cytometry.

For the next series, the system named is cells. Description: Preliminary rescue experiments on the mechanism of cytotoxicity. The class given is cell-based.
For series [6], the system named is H630 human colorectal tumor cells.
Method: as §2

The values below come from patent US6342485B1, “Synergistic compositions useful as anti-tumor agents” (priority 1999, dated 2002).

Where two headings read alike, the source gives them in different places.

The IC50 is the concentration that inhibits the measured activity by half. A low value points to higher potency. On to `O=c1[nH]cc(F)c(=O)[nH]1` [5-FU, 5-fluorouracil, reference compound], for which the IC50 in series [1] (Homo sapiens, NCI-H630) is 3.9 µM; in series [2] (Homo sapiens) it was 75 µM; in series [3] (Homo sapiens), 27.1 µM; in series [5] it was 4.87 µM. For the same compound, the half-life in-vivo entry in series [4] was “about 18 minutes”.

With FdUMP[10], the IC50 is 0.25 µM in series [1]; 0.071 µM in series [2]; 0.0995 µM in series [3]; 0.0169 µM in series [6] (MTT assay, H630 cells, 24 h drug exposure). In series [1] (FdUMP[10] alone at 4.0×10^−8 and 6.0×10^−8 M), the “effect on the growth of H630 cells as single agent” value is on record as “no significant effect”. Besides, in the series on H630 cells, the cells undergoing apoptosis is listed as about 100%. Besides, the “rescue of cells from FdUMP[10] by deoxythymidine” value in the series on cells was “does not rescue”. Besides, the “reversal of the effects of FdUMP[10] by uridine” value in the series on cells is on record as “partially reverse”. Moreover, the “efficiency of FdUMP[10] relative to 5-FU” value in series [6] was “about 400 times”.
